Laboratory results as given in ChEMBL document CHEMBL1140025, “Antimicrobial activity of rationally designed amino terminal modified peptides” (Bioorg Med Chem Lett, 2007).
In brackets after ≈: the same amount, converted by molar mass. Where a SMILES comes first, the peptide text is derived from it. [ ]: non-standard residue; d: D form. The star is where a group is joined. Desaminotyrosyl = O=C(CCc1ccc(O)cc1)*; X1 = O=C(/C=C/c1ccc(O)cc1)*; Orn = NCCC[C@H](N)C(=O)O; X2 = O=C(/C=C/c1ccccc1)*

How the values were obtained:
[1] = system: Bacillus subtilis; assay: Antibacterial activity against Bacillus subtilis NCIM 2063; format: functional
[2] = system: Escherichia coli; assay: Antibacterial activity against Escherichia coli MTCCB 1610; format: functional
[3] = system: Staphylococcus aureus; assay: Antibacterial activity against Staphylococcus aureus MTCCB 96; format: functional
[4] = Toxicity against human red blood cells assessed as lysis upto 1000 ug/mL; format: cell-based, Erythrocyte; settings: read-out: Activity
[5] = system: Escherichia coli; assay: Antibacterial activity against Escherichia coli
[6] = system: Pseudomonas aeruginosa; assay: Antibacterial activity against Pseudomonas aeruginosa MTCCB 741; format: functional

Compound	MIC [1]	MIC [2]	MIC [3]	hemolysis [4]	MIC [5]	MIC [6]
NCCC[C@H](NC(=O)/C=C/c1ccc(O)cc1)C(=O)N[C@@H](CCCN)C(=O)N[C@@H](Cc1ccccc1)C(=O)N[C@@H](Cc1ccccc1)C(N)=O (X1-[Orn][Orn]FF-NH2)	2 µg/mL (≈ 2.92 µM)	4 µg/mL (≈ 5.83 µM)	32 µg/mL (≈ 46.7 µM)	0%	8 µg/mL (≈ 11.7 µM)	2 µg/mL (≈ 2.92 µM)
NCCC[C@H](NC(=O)[C@@H](N)CCCN)C(=O)N[C@@H](Cc1c[nH]c2ccccc12)C(=O)N[C@@H](Cc1c[nH]c2ccccc12)C(N)=O (H-[Orn][Orn]WW-NH2)	512 µg/mL (≈ 829 µM)	512 µg/mL (≈ 829 µM)	128 µg/mL (≈ 207 µM)	0%	256 µg/mL (≈ 414 µM)	256 µg/mL (≈ 414 µM)
NCCC[C@H](NC(=O)/C=C/c1ccc(O)cc1)C(=O)N[C@@H](CCCN)C(=O)N[C@@H](Cc1c[nH]c2ccccc12)C(=O)N[C@@H](Cc1c[nH]c2ccccc12)C(=O)O (X1-[Orn][Orn]WW-OH)	128 µg/mL (≈ 167 µM)	64 µg/mL (≈ 83.7 µM)	128 µg/mL (≈ 167 µM)	0%	128 µg/mL (≈ 167 µM)	64 µg/mL (≈ 83.7 µM)
CC(=O)N[C@@H](CCCN)C(=O)N[C@@H](CCCN)C(=O)N[C@@H](Cc1c[nH]c2ccccc12)C(=O)N[C@@H](Cc1c[nH]c2ccccc12)C(N)=O (Ac-[Orn][Orn]WW-NH2)	2 µg/mL (≈ 3.03 µM)	32 µg/mL (≈ 48.5 µM)	2 µg/mL (≈ 3.03 µM)	0%	128 µg/mL (≈ 194 µM)	128 µg/mL (≈ 194 µM)
NCCC[C@H](NC(=O)/C=C/c1ccccc1)C(=O)N[C@@H](CCCN)C(=O)N[C@@H](Cc1c[nH]c2ccccc12)C(=O)N[C@@H](Cc1c[nH]c2ccccc12)C(N)=O (X2-[Orn][Orn]WW-NH2)	32 µg/mL (≈ 42.8 µM)	2 µg/mL (≈ 2.67 µM)	2 µg/mL (≈ 2.67 µM)	0%	4 µg/mL (≈ 5.35 µM)	16 µg/mL (≈ 21.4 µM)
CN(C)[C@@H]1C(O)=C(C(N)=O)C(=O)[C@@]2(O)C(O)=C3C(=O)c4c(O)cccc4[C@@](C)(O)[C@H]3C[C@@H]12 [TETRACYCLINE]	0.125 µg/mL (≈ 0.281 µM)	0.5 µg/mL (≈ 1.13 µM)	0.25 µg/mL (≈ 0.563 µM)	–	2 µg/mL (≈ 4.5 µM)	1 µg/mL (≈ 2.25 µM)
NCCC[C@H](NC(=O)CCc1ccc(O)cc1)C(=O)N[C@@H](CCCN)C(=O)N[C@@H](Cc1c[nH]c2ccccc12)C(=O)N[C@@H](Cc1c[nH]c2ccccc12)C(N)=O (Desaminotyrosyl-[Orn][Orn]WW-NH2)	2 µg/mL (≈ 2.61 µM)	2 µg/mL (≈ 2.61 µM)	1 µg/mL (≈ 1.31 µM)	0%	4 µg/mL (≈ 5.22 µM)	32 µg/mL (≈ 41.8 µM)
NC(=O)[C@H](Cc1c[nH]c2ccccc12)NC(=O)[C@H](Cc1c[nH]c2ccccc12)NC(=O)/C=C/c1ccc(O)cc1	1 µg/mL (≈ 1.87 µM)	< 512 µg/mL	2 µg/mL (≈ 3.73 µM)	0%	< 512 µg/mL	< 512 µg/mL
GENTAMICIN	0.03 µg/mL	0.25 µg/mL	0.062 µg/mL	–	–	1 µg/mL
NCCC[C@H](NC(=O)/C=C/c1ccc(O)cc1)C(=O)N[C@@H](CCCN)C(=O)N[C@@H](Cc1c[nH]c2ccccc12)C(=O)N[C@@H](Cc1c[nH]c2ccccc12)C(N)=O (X1-[Orn][Orn]WW-NH2)	1 µg/mL (≈ 1.31 µM)	16 µg/mL (≈ 20.9 µM)	2 µg/mL (≈ 2.62 µM)	0%	8 µg/mL (≈ 10.5 µM)	2 µg/mL (≈ 2.62 µM)
